Source: BindingDB's records for doi:10.7270/Q27D2X8F (n/a, 1993)

Assays:
[1] = target: Serotonin 2 (5-HT2) receptor (Homo sapiens, UniProt P28223+P28335+P41595); assay: The compound was evaluated for its ability to displace [3H]ketanserin from 5-hydroxytryptamine 2 receptor in cellular brain membranes
[2] = target: 5-hydroxytryptamine receptor 1B (Homo sapiens, UniProt P28222); assay: The compound was evaluated for its ability to displace [3H]5-HT from 5-hydroxytryptamine 1B receptor in cellular brain membranes
[3] = target: T1, 5-hydroxytryptamine receptor 1A (Homo sapiens, UniProt P08908); assay: The compound was evaluated for its ability to displace [3H]-8-OH-DPAT from 5-hydroxytryptamine 1A receptor in cellular brain membranes
T1 sequence (P08908 whole entry): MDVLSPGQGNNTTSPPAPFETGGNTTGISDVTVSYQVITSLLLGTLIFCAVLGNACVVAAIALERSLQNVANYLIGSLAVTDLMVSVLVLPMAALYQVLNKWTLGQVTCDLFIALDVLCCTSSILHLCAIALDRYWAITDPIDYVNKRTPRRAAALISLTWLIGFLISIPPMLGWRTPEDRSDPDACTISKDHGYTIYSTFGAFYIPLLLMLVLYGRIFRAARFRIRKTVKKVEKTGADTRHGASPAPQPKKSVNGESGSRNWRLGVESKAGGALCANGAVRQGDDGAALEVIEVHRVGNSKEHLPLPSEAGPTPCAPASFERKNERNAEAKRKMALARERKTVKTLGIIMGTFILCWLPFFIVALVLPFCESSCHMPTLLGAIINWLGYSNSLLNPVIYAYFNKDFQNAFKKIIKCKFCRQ

Sequence of 5-hydroxytryptamine receptor 1B (P28222 whole entry): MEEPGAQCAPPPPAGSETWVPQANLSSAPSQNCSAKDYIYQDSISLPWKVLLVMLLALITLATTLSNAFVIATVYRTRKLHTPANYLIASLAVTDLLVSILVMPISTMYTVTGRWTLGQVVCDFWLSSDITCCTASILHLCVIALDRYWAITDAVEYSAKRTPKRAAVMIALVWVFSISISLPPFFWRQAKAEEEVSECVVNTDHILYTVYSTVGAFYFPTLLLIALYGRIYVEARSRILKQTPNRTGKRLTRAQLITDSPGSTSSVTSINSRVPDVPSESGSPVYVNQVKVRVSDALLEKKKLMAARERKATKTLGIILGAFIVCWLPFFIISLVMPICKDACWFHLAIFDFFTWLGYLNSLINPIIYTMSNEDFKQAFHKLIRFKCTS
Sequence of Serotonin 2 (5-HT2) receptor (P28223 whole entry): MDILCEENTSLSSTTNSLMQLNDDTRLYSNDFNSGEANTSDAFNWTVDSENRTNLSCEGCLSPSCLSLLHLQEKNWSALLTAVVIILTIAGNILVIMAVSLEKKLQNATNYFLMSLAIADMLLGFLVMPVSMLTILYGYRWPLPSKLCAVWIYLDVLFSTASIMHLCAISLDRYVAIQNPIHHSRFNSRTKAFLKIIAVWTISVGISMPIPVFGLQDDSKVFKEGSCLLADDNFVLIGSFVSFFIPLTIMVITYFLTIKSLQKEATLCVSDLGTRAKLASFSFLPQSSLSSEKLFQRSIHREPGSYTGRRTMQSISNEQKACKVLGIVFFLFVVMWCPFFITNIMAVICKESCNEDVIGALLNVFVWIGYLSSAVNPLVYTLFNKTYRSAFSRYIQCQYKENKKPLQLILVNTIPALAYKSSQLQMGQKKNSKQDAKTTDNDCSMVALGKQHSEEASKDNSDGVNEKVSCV
Sequence of Serotonin 2 (5-HT2) receptor (P41595 whole entry): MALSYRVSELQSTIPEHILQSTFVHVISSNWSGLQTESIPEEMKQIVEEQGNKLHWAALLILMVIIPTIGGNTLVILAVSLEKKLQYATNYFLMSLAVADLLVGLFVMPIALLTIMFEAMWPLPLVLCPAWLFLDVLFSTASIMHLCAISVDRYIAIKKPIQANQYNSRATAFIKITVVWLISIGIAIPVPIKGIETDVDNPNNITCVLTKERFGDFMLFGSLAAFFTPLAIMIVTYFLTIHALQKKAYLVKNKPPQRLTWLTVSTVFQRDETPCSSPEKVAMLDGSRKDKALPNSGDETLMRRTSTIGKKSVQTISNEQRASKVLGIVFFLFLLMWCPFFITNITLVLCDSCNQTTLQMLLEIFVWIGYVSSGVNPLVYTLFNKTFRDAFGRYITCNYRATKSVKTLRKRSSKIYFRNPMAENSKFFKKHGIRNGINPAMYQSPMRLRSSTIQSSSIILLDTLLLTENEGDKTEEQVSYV
Sequence of Serotonin 2 (5-HT2) receptor (P28335 whole entry): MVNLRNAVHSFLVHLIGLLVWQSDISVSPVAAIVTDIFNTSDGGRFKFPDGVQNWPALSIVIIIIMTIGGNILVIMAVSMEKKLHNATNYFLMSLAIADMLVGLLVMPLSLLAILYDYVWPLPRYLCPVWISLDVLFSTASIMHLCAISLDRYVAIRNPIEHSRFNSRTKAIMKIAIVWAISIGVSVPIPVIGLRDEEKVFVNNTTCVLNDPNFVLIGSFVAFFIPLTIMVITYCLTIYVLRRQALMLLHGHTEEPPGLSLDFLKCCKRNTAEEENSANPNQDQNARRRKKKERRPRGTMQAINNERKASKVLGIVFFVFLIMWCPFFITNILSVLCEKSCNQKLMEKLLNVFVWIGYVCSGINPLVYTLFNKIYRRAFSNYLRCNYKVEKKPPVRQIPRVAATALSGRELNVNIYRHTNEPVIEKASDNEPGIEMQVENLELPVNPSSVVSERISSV

Row | Compound | IC50 [1] [nM] | IC50 [2] [nM] | IC50 [3] [nM]
1 | CCCN(CCCCNC(=O)c1cc(=O)oc2c3c4c(cc12)CCCN4CCC3)C1COc2cccc(OC)c2C1 (stereo not given) | 15 | 9 | 0.3
2 | CCCN(CCCCNc1ccc([N+](=O)[O-])c2nonc12)C1COc2cccc(OC)c2C1 (stereo not given) | 18000 | 340 | 100
3 | CCCN(CCCCN1C(=O)c2ccccc2S1(=O)=O)C1COc2cccc(OC)c2C1 (stereo not given) [2-{4-[(5-Methoxy-chroman-3-yl)-propyl-amino]-butyl}-1,1-dioxo-1,2-dihydro-1lambda*6*-benzo[d]isothiazol-3-one; compound with oxalic acid] | 10000 | 1000 | 1
4 | CCCN(CCCCN1C(=O)CC2(CCCC2)CC1=O)C1COc2cccc(OC)c2C1 (stereo not given) [NSC_121851] | 10 | 5000 | 0.2
5 | CCCN(CCCCN1C(=O)c2ccccc2C1=O)C1COc2cccc(OC)c2C1 (stereo not given) [2-{4-[(5-Methoxy-chroman-3-yl)-propyl-amino]-butyl}-isoindole-1,3-dione; compound with oxalic acid] | 30000 | 400 | 50
